The results in this text go back to article PMC10961359, “Targeting hexokinase 2 for oral cancer therapy: structure-based design and validation of lead compounds” (Frontiers in Pharmacology, 2024).

A short description of data set [1]: Cytotoxicity in normal HFF1 cells. In kind it is cell-based, human. The following applies: human, HFF1 cells (normal).
The subject of another data set is HFF1. Description: Cytotoxicity in normal HFF1 cells. Type of data set: cell-based, human.
In data set [2] the test system is Cal27 cells. Nature of the data set: Cell cycle analysis (propidium iodide, flow cytometry), Cal27. In kind it is cell-based. The following applies: Cal27, 10 and 30 μM, 72 h. On the procedure: (§1) FaDu and Cal27 cells were treated with the test compounds (0.5 million cells per treatment) for 72 h, and harvested for cell cycle analysis (Cat# BD340242) and apoptosis analysis (Cat# BD556547) by flow cytometry according to manufacturer’s instructions.
(§2) To determine the effect of HK2 inhibition in the progression of the cell cycle, flow cytometric analysis of compound-treated FaDu and Cal27 cells was carried out 72 h post-treatment. Cell cycle analysis is carried out to quantify the DNA content and estimate the percentages of the cell population in different cell cycle phases via propidium iodide staining. […] To determine the apoptosis-inducing activity of HK2 inhibitors, 10 and 30 μM of compounds H2 and H10 treated FaDu and Cal27 cells were stained with annexin V conjugated with FITC, followed by propidium iodide staining.

Data set [3] has as its system FaDu cells. Nature of the data set: Annexin V FITC / propidium iodide apoptosis assay, FaDu. Type of data set: cell-based. To be noted: 10 and 30 μM, 72 h. On the procedure:
as §1, §2

Data set [4] has as its system Cal27 cells. Nature of the data set: Annexin V FITC / propidium iodide apoptosis assay, Cal27. To be noted: Cal27, 10 and 30 μM, 72 h. Type of data set: cell-based. The procedure:
as §1, §2

Data set [5] has as its system FaDu cells. Description: Mitochondria membrane potential by TMRE uptake, FaDu. In kind it is cell-based. The following applies: 30 μM, 4 h. On the procedure: FaDu and Cal27 cells were treated with test compounds (0.2 million cells per treatment) and were incubated for 1 h with 100 μM of 2-NBDG (Invitrogen, N13195), in glucose free medium, washed with ice-cold PBS, and re-suspended in 500 μL of PBS and maintained on ice to perform flow cytometric analyses within 30 min. The mean fluorescent intensity (MFI) readout reflects the amount of fluorescent glucose analog taken up by the cells, providing insight into their glucose uptake capacity. The percent (%) cell population positive for glucose uptake (shown with a right shift of the histogram peaks) were also plotted for both the cell lines. For MMP analysis, cells were incubated with 200 nM of TMRE (Invitrogen, T669) for 30 min. For each measurement, data was collected for 10,000 events using a BD FACS Aria III (Becton Dickinson, San Jose, CA) instrument.
(§3) Mitochondria utilize the oxidizable substrates to produce a membrane potential as the proton gradient ([Sivandzade et al., 2019]). […] To determine the change in MMP post-treatment with HK2 inhibitors, the cells were treated with 200 nM of TMRE (tetramethyl rhodamine ethyl ester, a cell-permeant cationic dye readily sequestered by active mitochondria) and flow cytometric analyses of TMRE uptake was carried out. […]

The test system of data set [6] is mitochondrial HK2 (mitoHK2) in Cal27 cells. Nature of the data set: Western blot fractionation, mitoHK2 dissociation. In kind it is cell-based. The following applies: 4 h. The procedure: Cal27 cells were treated with the test compound (1 million cells per treatment for 4 h) and were processed for mitochondria isolation using a homogenization buffer containing 210 mM mannitol, 70 mM sucrose, 5 mM tris-HCl, (pH 7.5) and 1 mM EDTA (pH 7.5). The cell pellet was sheared with a total of 90 strokes in the homogenization buffer in a span of 1 h on ice. The lysate was centrifuged at 800 rpm for 10 min and the mitochondria enriched supernatant was isolated. The pellet was again lysed using RIPA lysis buffer to obtain the cytosolic fraction. The mitochondrial fractions and the cytosolic fractions were loaded on a 10% SDS-PAGE gel. The antibodies used were anti-HK2 antibody (CST, Cat#2867), anti β-actin antibody (CST, Cat#4970) and mitochondrial marker anti-VDAC antibody (CST, Cat# 4661). The whole cell lysates were obtained using RIPA lysis buffer alone. The quantifications were performed using ImageJ software.
as §3

The test system of data set [7] is EGFR tyrosine kinase phosphorylation in Cal27 cells. Description: Western blot pEGFR in Cal27 lysates. Type of data set: cell-based. To be noted: Cal27, 30 µM, 4 h post-treatment.
A further data set has as its system Cal27 spheroids. Description: 3D spheroid culture of Cal27 cells. In kind it is cell-based. The procedure:
Cal27 cells were seeded at a density of 10,000 cells per well in a 96-well plate coated with 1.5% agarose in incomplete medium. For the prophylactic treatment, medium containing the compounds was added to each well after 6 h of seeding. For treatment, compounds were added after 48 h of seeding. After incubation with the compounds, spheroids were imaged using phase-contrast microscopy to assess the morphology and size. Subsequently, the spheroids were pooled and dissociated into single cell suspension with trypsin for 10 min, washed with PBS and stained with propidium iodide (Cat# BD556547) to analyze the number of apoptotic cells using flow cytometry. For the analysis of spheroid images, each image was processed using ImageJ software where the threshold of each 8-bit image was adjusted to differentiate the darker spheroid area (the inner core) from the lighter spheroid area (the peripheral layers). Subsequently, the darker and lighter areas were measured in pixel square units using the ‘analyze particles’ option in ImageJ.
Cells plated in monolayer cultures might behave differently as compared to 3D cultures. The 3D cultures can better mimic the tumor development and serve as a better tool for drug screening ([Zanoni et al., 2016]). Therefore, spheroid cultures of Cal27 cells were prepared and treated with lead H2. […]

Turning to `COc1ccc(CNC(=O)c2nc3ccccc3s2)cc1O` [Compound 14, N-(3-hydroxy-4methoxybenzyl)benzo[d]thiazole-2-carboxamide], in data set [1], the half-maximal cytotoxic concentration (CC50) (in general, the concentration giving 50% cytotoxicity) was over 100 µM. In addition, the “Selectivity index (Cal27)” value in the data set with HFF1 (CC50/GI50, HFF1 vs Cal27) is listed as over 4.6. Besides, in the data set with HFF1 (CC50/GI50, HFF1 vs FaDu), the “Selectivity index (FaDu)” value is on record as over 1.6. Also, in the data set on Cal27 cells [2], the “effect on cell cycle progression” value is “G0/G1 phase arrest”. The apoptosis-inducing activity result with FaDu cells [3] was “late apoptotic and necrotic effects”; in the data set with Cal27 cells [4] it was “late apoptotic and necrotic effects”. The “MMP reduction compared to H10 and CCCP” value in the data set on FaDu cells [5] is recorded as “more effective in reducing the MMP”. In addition, the “mitochondrial HK2 (mitoHK2) dissociation” value in data set [6] (Cal27, 30 μM) is “induced the dissociation of mitoHK2”. Besides, in [6] (Cal27 whole cell lysate, 30 μM), the “expression of total HK2 protein” value is given as “without altering the expression of total HK2 protein”. Besides, the “EGFR tyrosine kinase phosphorylation” value in [7] is reported as “does not significantly impact”. The spheroid growth entry with Cal27 spheroids (prophylactic and therapeutic treatment) is given as “reduction of spheroid growth”. The “population of dead cells in spheroids” value in the data set on Cal27 spheroids (propidium iodide staining at the end of the study) is recorded as “increase in the population of dead cells”.
